Assay results reported in patent US8114843B2, “Photoreactive regulator of protein function and methods of use thereof” (The Regents of the University of California, priority 2005, dated 2012).
≈ marks a conversion by molar mass, not a printed value. Entries after “also recorded” stand apart in the source; their conditions may differ.

Tests used:
iGluR6 = biological target: T1, iGluR6 (Rattus norvegicus, UniProt P42260); assay: Calcium imaging of iGluR6 activity in HEK293 cells; format: cell-based
T1 construct: expressed in transfected cells; host or cells: HEK293
T1 sequence (P42260 32-908): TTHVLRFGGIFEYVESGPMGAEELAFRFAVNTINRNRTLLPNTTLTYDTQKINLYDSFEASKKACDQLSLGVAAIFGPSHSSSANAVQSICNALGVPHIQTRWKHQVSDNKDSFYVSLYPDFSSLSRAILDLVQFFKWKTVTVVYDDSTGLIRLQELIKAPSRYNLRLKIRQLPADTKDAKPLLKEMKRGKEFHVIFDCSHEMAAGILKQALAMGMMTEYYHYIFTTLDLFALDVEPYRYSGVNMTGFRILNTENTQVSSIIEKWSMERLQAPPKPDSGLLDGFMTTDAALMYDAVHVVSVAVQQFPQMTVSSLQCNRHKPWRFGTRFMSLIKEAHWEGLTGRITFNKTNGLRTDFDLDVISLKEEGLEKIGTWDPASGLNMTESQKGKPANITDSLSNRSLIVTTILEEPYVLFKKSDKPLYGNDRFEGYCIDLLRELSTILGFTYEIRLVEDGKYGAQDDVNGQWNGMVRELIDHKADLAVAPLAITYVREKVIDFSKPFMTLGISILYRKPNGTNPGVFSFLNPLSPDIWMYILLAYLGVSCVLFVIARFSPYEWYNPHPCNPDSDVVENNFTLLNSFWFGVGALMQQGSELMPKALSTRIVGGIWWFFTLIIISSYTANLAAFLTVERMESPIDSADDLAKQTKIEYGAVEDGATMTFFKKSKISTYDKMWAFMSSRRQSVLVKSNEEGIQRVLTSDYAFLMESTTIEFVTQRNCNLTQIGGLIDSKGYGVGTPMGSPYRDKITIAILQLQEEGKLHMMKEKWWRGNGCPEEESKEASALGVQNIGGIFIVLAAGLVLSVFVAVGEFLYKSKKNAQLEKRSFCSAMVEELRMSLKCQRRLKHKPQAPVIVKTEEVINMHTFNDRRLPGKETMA
Description: HEK293 cells were plated at approximately 3×10^6 cells/ml on poly-L-lysine-coated glass coverslips (Deutsche Spiegelglas, Carolina Biological) and maintained in DMEM with 5% fetal bovine serum, 0.2 mg/ml streptomycin, and 200 U/ml penicillin at 37° C. Cells were transiently transfected with various plasmids using lipofectamine 2000 (Invitrogen). The amount of total transfected iGluR6 DNA and enhanced yellow fluorescent protein (EYFP) fusion DNA per well was fixed at 4 μg and 200 ng, respectively. All recordings were carried out 36 to 48 h after transfection.
—Cells were washed in PBS and loaded with 5 μM FURA-2-AM (Molecular Probes) for 30 min. […] Fluorescence was monitored on an inverted microscope system (Nikon). […] L-Glutamate was applied as reported in text and figures. The results are representative data from multiple cells in at least two independent cultures.

Solubility = format: physicochemical; conditions: for solubility: read-out: solubility limit
[1] = system: voltage-gated outward current (endogenous K+ channels) in cultured hippocampal neurons; assay: Photocontrol of K+ current in cultured hippocampal neurons; format: cell-based, rat; conditions: 200 μM, 15 min in the dark
Description: Hippocampal neurons were prepared from neonatal Sprague-Dawley rats according to standard procedures (Goslin) and grown on poly-L-lysine coated coverslips in MEM supplemented with 5% fetal bovine serum, B27 (Invitrogen), glutamine and serum extender (BD Biosciences). Animal care and experimental protocols were approved by the UC Berkeley Animal Care and Use Committee. Recordings were performed 9-16 days after plating. The Shaker construct also contains an N-terminal deletion (Δ6-46) to minimize fast inactivation.
(§1) PAL attachment. HEK293 and hippocampal cells were rinsed in extracellular solution containing in mM: 138 NaCl, 1.5 KCl, 1.2 MgCl2, 2.5 CaCl2, 5 HEPES, 10 glucose and incubated at 37° C. in the dark with 200-250 μM PAL for 15 minutes. For slices, AAQ was diluted to 200 μM in aCSF and treatment was performed in the dark at room temperature for 10 minutes.
Electrophysiological recording. Recordings from HEK293 and hippocampal neurons were made in the whole-cell patch clamp configuration using a PC-501A amplifier (Warner Instruments). Pulse protocols and measurements were carried out with pCLAMP and a Digidata 1322 interface (Axon Instruments). For voltage-clamp experiment, cells were held at −70 mV. Data was recorded at 20 kHz and filtered at 2 kHz. […]

[2] = system: hippocampal pyramidal neurons transfected with the multiply-mutated Shaker channel; assay: Current clamp recordings from cultured hippocampal neurons treated with MAL-AZO-QA; format: cell-based, rat
Description: Primary dissociated hippocampal cultures were prepared from E18-19 Sprague-Dewey rat embryos and grown on glass cover slips in serum-containing media and incubated in 7% CO2 in air at 37° C. Cells were co-transfected with GFP along with the modified Shaker channel described above with additional L366A and V454L mutations. Transfections with Lipofectamine 2000™ were performed at 12-14 DIV. About 10% of the cultured neurons appeared GFP-positive at 2-3 days after transfection. Coverslips containing the neurons were treated at 37° C. for 15 min with 300 μM MAL-AZO-QA in an extracellular recording solution containing (in mM) 135 NaCl, 5 KCl, 1.2 MgCl2, 5 HEPES, 2.5 CaCl2, and 10 glucose at pH 7.4. Patch pipettes (7-10 MΩ) were filled with 10 NaCl, 135 K-gluconate, 10 HEPES, 2 MgCl2, 2 Mg-ATP, and 1 EGTA at pH 7.4. After washout of MAL-AZO-QA with extracellular solution, membrane potential was recorded at room temperature under whole-cell current clamp with an AXOPATCH 200A amplifier (Axon Instruments) and filtered at 10 kHz. Initial recordings were made at resting potential to evaluate the effects of light on spontaneous activity. In experiments where we wanted to quantify the effect of light on firing (e.g. FIG. 4b), cultures were treated with 6-cyano-7-nitroquinoxaline-2,3-dione (CNQX) (1 μM) and bicuculline (10 μM) to silence synaptic activity. Baseline currents were adjusted to set the membrane potential at −50 mV before depolarizing current steps ranging from 0.01-0.03 nA were applied to evoke action potentials. Cells were irradiated with a Lambda-LS illuminator containing a 125 watt xenon arc lamp (Sutter Instruments Company), equipped with narrow bandpass (+/−10 nm) filters through a Fluor 20×, 0.5 NA objective lens (Nikon). Variability among data is expressed as mean+/−SEM, unless noted otherwise.

[3] = biological target: Shaker H4 (Δ6-46, E422C, T449V) (Drosophila melanogaster, UniProt P08510, DEL6-46/E422C/T449V); assay: Patch recordings of MAL-AZO-QA-modified Shaker channels in Xenopus oocytes; format: cell-based
Chain of Shaker H4 (Δ6-46, E422C, T449V) (P08510 other isoform, or with tags, fused parts or gaps DEL6-46/E422C/T449V): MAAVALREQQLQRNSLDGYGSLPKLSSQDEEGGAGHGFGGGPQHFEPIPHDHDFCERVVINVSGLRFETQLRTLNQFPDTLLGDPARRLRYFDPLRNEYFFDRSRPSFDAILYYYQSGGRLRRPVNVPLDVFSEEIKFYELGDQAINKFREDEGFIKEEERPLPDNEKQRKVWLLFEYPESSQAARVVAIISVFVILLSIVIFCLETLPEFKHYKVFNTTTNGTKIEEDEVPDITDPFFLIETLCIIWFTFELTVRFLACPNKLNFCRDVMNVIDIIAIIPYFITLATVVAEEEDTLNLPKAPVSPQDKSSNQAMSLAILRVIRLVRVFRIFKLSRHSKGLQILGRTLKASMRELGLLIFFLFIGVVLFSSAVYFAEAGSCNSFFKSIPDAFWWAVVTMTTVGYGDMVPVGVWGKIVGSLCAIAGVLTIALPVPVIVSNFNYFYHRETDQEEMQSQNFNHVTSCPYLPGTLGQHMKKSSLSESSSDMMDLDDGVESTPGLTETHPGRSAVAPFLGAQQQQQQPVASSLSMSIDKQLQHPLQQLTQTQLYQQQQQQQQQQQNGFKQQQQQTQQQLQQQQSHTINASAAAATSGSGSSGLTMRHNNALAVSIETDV
Description: Xenopus oocytes were injected with […] of mRNA encoding Shaker H4, with the following mutations: Δ6-46, E422C, T449V. […] Devitillenized oocytes were recorded from 2-10 days post-injection using standard patch-clamp methods. For outside-out patches, glass patch pipettes (2-4 MΩ) were filled with a solution containing (in mM) 100 KCl, 10 HEPES, 0.1 CaCl2, 0.5 MgCl2, and 10 EGTA, while the bath contained 10 KCl, 90 NaCl, 10 HEPES, 0.1 CaCl2, 0.5 MgCl2, and 10 EGTA. For inside-out patches, patch pipettes and bath both contained 100 KCl, 10 HEPES, 0.1 CaCl2, 0.5 MgCl2, and 10 EGTA. The pH of all solutions was 7.1. Solid MAL-AZO-QA was dissolved as a concentrated stock solution in DMSO and stored at −20° C. until the day of use. Stocks were diluted into oocyte bath solution to final concentrations of 10 μM or 100 μM. […] Pulse protocols and measurements were performed with pCLAMP software, a DigiData 1200 series interface, and a PC-505 amplifier (Warner Instruments). Samples were taken at 10 kHz and the data was filtered at 1 kHz. Patches were held at −90 mV, pulsed to −100 mV for 60 msec to monitor leak, and pulsed to −20 mV for 30-100 msec at 1 Hz to elicit Shaker currents. The peak of the Shaker currents was measured to minimize the contribution of slow inactivation. Patches with a leak conductance>100 pS were not included in analysis.
Discrete wavelengths of light (+/−10 nm) were focused on patches through a quartz coverslip with a Fluor 20×, 0.5 NA objective lens (Nikon). Output intensity was measured for wavelengths between 300 and 600 nm. The measured output intensities for wavelengths between 340-600 nm ranged from 0.324e-8 to 6.23e-8 W/cm^2. Differences in light intensities at different wavelengths were taken into account when determining action spectra for channel block and unblock.

wild-type Shaker (E422) = biological target: T2, wild-type Shaker (E422) (Drosophila melanogaster, UniProt P08510, DEL6-46); assay: PAL photoswitching, whole-cell patch clamp in HEK293 cells; format: cell-based
T2 construct: expressed in transfected cells; host or cells: HEK293
T2 sequence (P08510 other isoform, or with tags, fused parts or gaps DEL6-46): as the sequence (P08510 other isoform, or with tags, fused parts or gaps DEL6-46/E422C/T449V) above, with C381E, V408T counted along it
Description: Cell culture and transfection. HEK293 cells were grown in DMEM containing 5% fetal bovine serum, at 37° C., 7% CO2. For electrophysiology, cells were plated at 12×10^5 cells/cm^2 on poly-L-lysine coated coverslips and transfected using the calcium phosphate method. Recordings were performed 24-36 hours after transfection.
as §1
Electrophysiological recording. Recordings from HEK293 and hippocampal neurons were made in the whole-cell patch clamp configuration using a PC-501A amplifier (Warner Instruments). Pulse protocols and measurements were carried out with pCLAMP and a Digidata 1322 interface (Axon Instruments). For voltage-clamp experiment, cells were held at −70 mV. Data was recorded at 20 kHz and filtered at 2 kHz. Recording pipettes with 2.5-4 MΩ resistance were filled with intracellular solution containing in mM: 10 NaCl, 135 K-gluconate, 10 HEPES, 2 MgCl2, 2 MgATP, 1 EGTA, pH 7.4.
Illumination was provided using a xenon lamp (Sutter Instruments) with narrow band pass filters (380 BP10 for UV and 500 BP5 for visible light respectively). Excitation filters were changed using a lambda 10-2 filter changer (Sutter Instruments) controlled via pCLAMP software.
Percent photoswitching was defined as the difference between current in UV and visible light divided by current in UV. All data shown in bar graphs are averages±standard error of the mean.

[4] = system: cultured hippocampal neurons; assay: Live/Dead assay after PAL treatment; format: cell-based; conditions: 200 μM
From the text: Live/Dead assay. After PAL treatment, hippocampal neurons were processed for the live dead assay (Molecular Probes) according to the manufacturer's instructions. Cells were counted in 4-8 fields for each treatment condition.

[5] = Photostationary state determination by NMR; format: physicochemical; conditions: MAG-1 conjugated to β-mercaptoethanol, D2O
Description: Cis-trans photoisomerization of MAG-1 conjugated with β-mercaptoethanol (see Supplementary Methods online) was studied by ^1H NMR, with in situ irradiation of sample using a Polychrom V system monochromator (Till Photonics) containing a 150 W Xenon short arc lamp with an output range of 320-680 nm (29). The half-power bandwidth was 14 nm. A 500 μl aliquot of a 100 μM sample in D2O was prepared in a screw-capped 528-TR-7 NMR tube (Wilmad). A FT-600-UMT fiber optic cable (NA 0.39) (Thorlabs) was coupled at one end to the monochromator using a custom fitting and the other end inserted into the NMR tube a few millimeters above the solution. Each sample was irradiated at the desired wavelength for 30 minutes to reach the photostationary state and 480 scans were required to obtain reasonable signal-to-noise ratios. The output from the fiber optic cable between 340-480 nm ranged from 0.3-9.0 μW/cm^2. Data were processed by isolating aromatic cis-trans ^1H signals and summing their integrals to 1.0. All data were obtained in triplicate and averaged. This analysis will be detailed further in a future paper by Banghart, M. R. et al. (in preparation).

hippocampal neurons = assay: Live-Dead viability/cytotoxicity assay after MAG exposure; conditions: 12 hours continuous exposure, several concentrations; listed as MAG
Description: Neuronal survival following 12 hours of continuous exposure to several concentrations of MAG was also examined.

Purkinje neurons = assay: Loose-patch extracellular recording in cerebellar slices; format: cell-based, rat; conditions: gabazine added
Description: Brain Slice Preparation. Parasagittal cerebellar slices were prepared using standard techniques approved by the UCLA Animal Care Committee. […] PAL attachment. […] For cerebellar slices, neuronal cell bodies were visualized using an upright microscope with a 40× water immersion lens and equipped with an infrared-DIC enhancement. Loose-patch extracellular recordings were performed using an Axopatch 200B amplifier (Axon Instruments). Electrophysiological recordings were filtered at 1 KHz and digitized at 2-4 KHz. Pipettes were typically 1.4-2.0 MΩ for recordings from PNs and 3.0-3.5 MΩ for interneurons and filled with aCSF. […] All recordings were performed at room temperature. […] Excitation filters were changed using a lambda 10-2 filter changer (Sutter Instruments) controlled via pCLAMP software.

Cl.N[C@@H](C[C@@H](CCCC(=O)NCC(=O)Nc1ccccc1)C(=O)O)C(=O)O [tether model 3]
maximal response compared with saturating glutamate (iGluR6): similar | EC50 (iGluR6; FURA-2-AM calcium imaging, HEK293, read-out: EC50 for activating iGluR6): 180 µM | solubility (Solubility): 10 mM

CC[N+](CC)(CC)CC(=O)Nc1ccc(/N=N/c2ccc(NC(=O)CN3C(=O)C=CC3=O)cc2)cc1 [MAL-AZO-QA]
percent of the outward current that could be photoswitched [1]: 2±5% | time to silence spontaneous action potentials ([2]; 390 nm light): ≤ 3 s | decrease in number of action potentials elicited by a depolarizing step ([2]; 390 nm light, n=4): 79% | onset of restored activity in the dark after silencing ([2]; dark): > 30 s | effect of light on treated neurons expressing GFP without the Shaker channels ([2]; n=4): no effect | wavelength most effective in unblocking channels ([3]; action spectrum, inside-out patches): 380 nm | return of unblocked channels to the blocked state in the dark ([3]; dark): > 5 min | τ1 of current block in dark (biexponential) ([3]; dark): 0.49 min | τ2 of current block in dark (biexponential) ([3]; dark): 4.79 min | current unblocked by ultraviolet light ([3]; inside-out patch, oocytes treated with 100 μM for 30 min): ≤ 1 nA | reduction of voltage-gated Shaker current ([3]; outside-out patch, 10 μM, over 4 min): > 60% | time for unblock and re-block to nearly reach steady-state ([3]; standard epifluorescence illumination): ≤ 5 s

CC[N+](CC)(CC)CC(=O)Nc1ccc(/N=N/c2ccc(NC(=O)CCl)cc2)cc1 [CAQ]
light-sensitivity conferred on channel (wild-type Shaker (E422)): conferred light-sensitivity | death of neurons ([4]; 15 min): ~10% | loss of neurons ([4]; 60 min): ~15% | water solubility compared with AAQ (Solubility): less water-soluble

O=c1[nH]c2cc([N+](=O)[O-])c([N+](=O)[O-])cc2[nH]c1=O [DNQX, 6,7-dinitroquinoxaline-2,3-[1H,4H]-dione, reference compound]
solubility (Solubility): 4 mM (≈ 1010 µg/mL)

N[C@@H](CC(CCCC(=O)NCC(=O)Nc1ccc(/N=N/c2ccc(NC(=O)CN3C(=O)C=CC3=O)cc2)cc1)C(=O)O)C(=O)O (stereo in doubt) [MAG-1]
fraction in the cis-state ([5]; 380 nm): 93.0±0.6% | fraction in the trans-state ([5]; 500 nm): 83.0±0.6% | cell death compared with controls (hippocampal neurons): no difference; also recorded: no increase in cell death | light sensitivity conferred (Ca2+ increase at 380 nm, decrease at 500 nm) (iGluR6; wildtype iGluR6 (WT)): not on wildtype iGluR6 | solubility (Solubility): 0.2 mM (≈ 124 µg/mL)

COc1ccc(-c2ccc(=N)n(CCCC(=O)O)n2)cc1 [Gabazine, reference compound]
basal firing rate of Purkinje cells (Purkinje neurons): ~15 Hz
